Measured values from patent publication US8815954B2, “Arginine heteromers for topical administration” (Revance Therapeutics, Inc., priority 2005, dated 2014).

Tests used:
[1] = system: human forehead skin perfusion; test: Human forehead tissue perfusion by Laser Doppler Flowmeter after topical application; type: in vivo; conditions: lip balm formulation 4.0 mg/ml topical, readings every 30 seconds for 5 minutes from one minute after application (n=55)
Procedure: Mean and standard error were assessed using Statview (Abacus Concepts, Berkeley, Calif.), with comparisons made using ANOVA repeated measures and significance determined at 95% with post-hoc testing using Fisher PLSD or Scheffe F-test. All procedures and analyses were performed by blinded observers.

murine skin = test: In vivo cumulative efficacy for topical delivery of arginine across murine skin; morphological assessment of treated skin sections by image analysis; design: species or system C57 black 6 female mice; conditions: mice, topical 200 μl once daily for 7 days in Cetaphil cream, dorsal skin harvested 24 hours after last treatment, H&E image analysis
Procedure: In vivo cumulative efficacy for topical delivery of arginine across murine skin.
The potential for a heteromer of arginine to cross the skin and exert previously characterized benefits related to arginine/NOS activity was evaluated by examining arginine-vitamin E and arginine-palmitate heteromers in an animal model system. While both heteromers improve the lipid solubility relative to arginine alone and should increase transdermal flux, the vitamin E heteromer is also expected to afford additional functional benefits due to its anti-oxidant properties.
1. Arg-palmitate: 0.9996 g of arginine+palmitate were dissolved in 6 ml of jojoba oil (Essential Wholesale, Portland, Oreg.), then diluted with 6 ml (1:1 dilution) of Cetaphil cream.
2. Arg-vitamin E: 0.419 g of arginine+vitamin E were dissolved in 6 ml of deionized H2O then diluted with 6 ml (1:1 dilution) of Cetaphil cream.
Daily-dose topical treatments of metered 200 μl aliquots were prepared for treatments of Arg-palmitate, Arg-vitamin E, or Cetaphil control in 650 μl microcentrifuge tubes.
Animals (C57 black 6 female mice, Charles River Laboratories, Wilmington, Mass.) were anesthetized via inhalation of isoflurane mixed with oxygen and then injected with 0.5 ml rodent anesthetic cocktail (3.75 ml of 100 mg/ml Ketamine, 3.00 ml of 20 mg/ml Xylazine, and 23.25 ml of saline) intraperitoneally. The animals were supplemented with isoflurane as necessary. Treatment groups contained 4 mice each and the control group 3 mice. After being anesthetized, a 2.0 cm×2.0 cm dose site on the dorsum of each mouse was carefully shaved with a hair clipper on the first day of treatment application and animals underwent depilatory treatment in the same dorsal region using a rosin mixture (Surgiwax, Ardell International, Los Angeles, Calif.). Animals were anesthetized via inhalation of isoflurance only during the application of treatments in Cetaphil moisturizing cream (Galderma, Fort Worth, Tex.) and had metered 200 μl doses of the appropriate treatment applied to the cranial portion of dorsal back skin (selected because the mouse cannot reach this region with mouth or limbs). Animals remained under anesthesia for 1-2 minutes while the appropriate treatment was applied into the skin with small metal spatula. […]
High resolution digital images of each section were obtained using a Retiga 1300B camera (QImaging, Burnaby, BC, Canada). Images were analyzed using Image-Pro Plus analysis software (Media Cybernetics, Silver Springs, Md.) to determine morphological assessment and expressed as positive pixels. Mean and standard error were subsequently determined for each group using Statview software (Abacus, Berkeley, Calif.), with analysis of significance at 95% confidence in Wilcoxon signed ranks.

With Cc1c(C)c2c(c(C)c1OC(=O)C(N)CCCNC(=N)N)CCC(C)(CCCC(C)CCCC(C)CCCC(C)C)O2 (centres unmarked) [Arg-Vitamin E] the “Forehead perfusion, Mean” value [1] was 8.016 tissue perfusion units, the “Dermis: dermal thickness, Mean” value (murine skin) was 35779 positive pixels and the “Epidermis: epidermal thickness, Mean” value (murine skin) was 16475 positive pixels. For the same compound, the “Fat: fat thickness/density, Mean” value (murine skin) was 21386 positive pixels and the “Hair: hair length, Mean” value (murine skin) was 18316 positive pixels.
